Measurements as given in US6017934A, “Thrombin inhibitors” (Merck & Co., Inc., priority 1998, dated 2000).
Residues, ends and D or L forms follow the SMILES beside them.

Tests used:
Format in all cases: biochemical
human a-thrombin [1] = target: T1, human a-thrombin (Homo sapiens, UniProt P00734); experiment: In vitro thrombin inhibition (Ki); details: 25° C., 0.05 M TRIS pH 7.4, 0.15 M NaCl, 0.1% PEG; read-out: trombin Ki
Protocol: (§1) Assays of human a-thrombin and human trypsin were performed at 25° C. in 0.05 M TRIS buffer pH 7.4, 0.15 M NaCl, 0.1% PEG. Trypsin assays also contained 1 mM CaCl2.
(§2) Concentrations of stock solutions of Z-GPR-afc were determined from measurements of absorbance at 380 nm of the 7-amino-4-trifluoromethyl coumarin produced upon complete hydrolysis of an aliquot of the stock solution by thrombin.
Times required to achieve equilibration between enzyme and inhibitor were determined in control experiments. Initial velocities of product formation in the absence (Vo) or presence of inhibitor (Vi) were measured. Assuming competitive inhibition, and that unity is negligible compared Km /[S], […] (where [S], [I], and e respectively represent the total concentrations, of substrate, inhibitor and enzyme), the equilibrium constant (Ki) for dissociation of the inhibitor from the enzyme can be obtained from the dependence of Vo /Vi on [I] shown in equation 1.

human trypsin = experiment: Rate of hydrolysis of p-nitroanilide substrate by trypsin; details: 405 nm, 1 mM CaCl2
Protocol: as §1

human a-thrombin [2] = target: T1, human a-thrombin; experiment: Thrombin catalyzed hydrolysis of fluorogenic substrate; details: 500 nm (excitation 400 nm)
Protocol: as §1, §2

Row | Compound | Ki (human a-thrombin [1]) [nM] | further results
1 | Cc1cc(Sc2ccccc2)c(N)c(=O)n1CC(=O)NCc1cc(Cl)ccc1OCC(=O)NC1CC1 | < 10 | –
2 | CNCC(=O)N1CCC[C@H]1C(=O)N[C@@H](CCCNC(=N)N)C(=O)Nc1ccc([N+](=O)[O-])cc1 [sar-PR-pna, sarcosine-Pro-Arg-p-nitroanilide] (HELM PEPTIDE1{[Sar].P.R.[O=[N+]([O-])c1ccc(N[*:1])cc1]}$$$$V2.0) | – | Km (human trypsin): 59 µM
3 | Cc1nc(N)ccc1CNC(=O)Cn1c(C)cc(Sc2ccccc2)c(NS(C)(=O)=O)c1=O | > 10 | –
4 | N=C(N)NCCC[C@H](NC(=O)[C@@H]1CCCN1C(=O)CNC(=O)OCc1ccccc1)C(=O)Nc1ccc2c(C(F)(F)F)cc(=O)oc2c1 [Z-GPR-afc, Cbz-Gly-Pro-Arg-7-amino-4-trifluoromethylcoumarin] (HELM PEPTIDE1{[O=C(OCc1ccccc1)[*:2]].G.P.R.[O=c1cc(C(F)(F)F)c2ccc(N[*:1])cc2o1]}$$$$V2.0) | – | Km (human a-thrombin [2]): 27 µM
